From patent US8101583B2, “1,4-benzothiepin-1,1-dioxide derivatives which are substituted with fluorine, method for producing the same, drugs containing said compounds and use thereof” (Sanofi-Aventis Deutschland GmbH, priority 2006, dated 2012)

Target: T1, human IBAT (Homo sapiens, UniProt Q12908)
T1 construct: Bases 599 to 1645 correspond to the complete coding region of human IBAT; expressed in transfected cells
T1 sequence (Q12908 1-348): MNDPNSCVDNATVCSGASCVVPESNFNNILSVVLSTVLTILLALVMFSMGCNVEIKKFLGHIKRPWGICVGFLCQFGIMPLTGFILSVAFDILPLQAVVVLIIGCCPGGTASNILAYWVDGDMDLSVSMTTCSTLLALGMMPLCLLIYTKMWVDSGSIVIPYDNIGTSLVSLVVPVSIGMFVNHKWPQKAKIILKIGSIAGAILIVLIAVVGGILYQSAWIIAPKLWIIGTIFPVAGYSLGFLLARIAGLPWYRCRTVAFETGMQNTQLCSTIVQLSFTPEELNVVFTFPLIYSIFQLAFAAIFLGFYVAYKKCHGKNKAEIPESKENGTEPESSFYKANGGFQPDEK
Assay: in vitro IBAT inhibition assay: IBAT-dependent uptake of [3H]-taurocholic acid into CHO-hIBAT cells
Assay type: cell-based
Settings: taurocholic acid 10 μM, 60 min at room temperature, read-out: IC-50 (human IBAT)
From the text: Preparation and procedure for the in vitro IBAT inhibition assay:
1. Cloning of an Expression Vector for Human IBAT
The cDNA (complementary deoxyribonucleic acid) of human IBAT was cloned by standard methods of molecular biology as described for example in Molecular Cloning: A Laboratory Manual by Joseph Sambrook and David Russell, and introduced into the pcDNA1 vector from Invitrogen. […] Bases 599 to 1645 correspond to the complete coding region of human IBAT.
2. Preparation of a Recombinant Cell Line with Constitutive Expression of Human IBAT
The expression vector for human IBAT was introduced by stable transfection into CHO (chinese hamster ovary) cells. To select single cell clones, 400 μg/ml Geneticin was added to the cell culture medium (Ham's F12 medium supplemented with 10% fetal calf serum, 100 units/ml penicillin, 100 units/ml streptomycin). The functionality of the single cell clones resulting from the selection was assayed via their uptake activity for radiolabeled taurocholic acid ([^3H]-TCA). The cell clone with the highest uptake activity for [^3H]-TCA, referred to hereinafter as CHO-hIBAT, was selected for the further assays and further cultured in the presence of 400 μg/ml Geneticin.
3. Measurement of the Inhibitory Effect of the Compound of the Invention on the IBAT-Dependent Uptake of Taurocholic Acid into Cells
CHO-hIBAT cells were seeded in a concentration of 40 000 cells per well in poly-D-lysine-coated 96-well plates in cell culture medium and cultured for 24 h. The cells were then washed once with sodium-free transport assay buffer (140 mM choline chloride, 2 mM potassium chloride, 1 mM magnesium chloride, 1 mM calcium chloride, 10 mM HEPES/Tris, pH 7.5) and subsequently incubated either with sodium-free transport assay buffer as negative control or with sodium-containing transport assay buffer (140 mM sodium chloride, 2 mM potassium chloride, 1 mM magnesium chloride, 1 mM calcium chloride, 10 mM HEPES/Tris, pH 7.5) as positive control at room temperature for 30 min. At the same time, the assay wells were also incubated in the presence of the compound to be investigated in varying concentration in sodium-containing transport assay buffer at room temperature for 30 min. The test substances were appropriately diluted in transport assay buffer (40 μl/well) starting from a 10 mM stock solution in dimethyl sulfoxide. The assay was then started by adding 10 μl/well of a mixture of radiolabeled taurocholic acid ([^3H]-TCA) and unlabeled taurocholic acid. The final concentration of taurocholic acid in the assay was 10 μM. After an incubation time of 60 min at room temperature, the reaction was stopped by adding 100 μl/well sodium-free transport assay buffer (4° C.), and each well was washed three times with sodium-free transport assay buffer. Finally, 100 μl of scintillation fluid were added to each well, and the radioactivity taken up into the cells was determined in a MicroBeta Scintillation Microplate Reader from Wallac.
The half-maximum inhibitory effect of the test compound (IC50 value, inhibitory concentration 50) was determined in the following way: • 1. Determination of the value for 0% inhibition. This is the measurement in the absence of substance, measured in sodium-containing transport assay buffer. • 2. Determination of the value for 100% inhibition. This is the measurement in the absence of substance, measured in sodium-free transport assay buffer. • 3. […]

IC50 [nM]	SMILES
6.5	CCCC[C@]1(CC)CS(=O)(=O)c2ccc(N(C)C)cc2[C@@H](c2cccc(NC(=O)N[C@@H]3O[C@H](CO)[C@@H](F)[C@H](O)[C@H]3O)c2)[C@H]1O [Example 1]
3.9	CCCC[C@]1(CC)CS(=O)(=O)c2ccc(N(C)C)cc2[C@@H](c2cccc(NC(=O)N[C@@H]3O[C@H](COS(=O)(=O)O)[C@@H](F)[C@H](O)[C@H]3O)c2)[C@H]1O [Example 2]
5.3	CCCC[C@]1(CC)CS(=O)(=O)c2ccc(N(C)C)cc2[C@@H](c2cccc(NC(=O)N[C@@H]3O[C@H](CO)C(F)(F)[C@H](O)[C@H]3O)c2)[C@H]1O [Example 3]
3.6	CCCC[C@]1(CC)CS(=O)(=O)c2ccc(N(C)C)cc2[C@@H](c2cccc(NC(=O)N[C@@H]3O[C@H](COS(=O)(=O)O)C(F)(F)[C@H](O)[C@H]3O)c2)[C@H]1O [Example 4]
5.6	CCCC[C@]1(CC)CS(=O)(=O)c2ccc(N(C)C)cc2[C@@H](c2cccc(NC(=O)N[C@@H]3O[C@H](CS(=O)(=O)O)[C@@H](F)[C@H](O)[C@H]3O)c2)[C@H]1O [Example 5]
